Reference: publication PMC3408624 (Chemistry & biology, 2012)
Entries after “also recorded” stand apart in the source; their conditions may differ. Where two headings read alike, the source gives them in different places.

Experiments:
[1] = molecular target: T1, anthrax lethal factor (LF) (Bacillus anthracis, UniProt P15917); assay: biochemical; type: biochemical
[2] = molecular target: T1, anthrax lethal factor (LF); assay: biochemical; type: biochemical; remark: listed apart in the source
[3] = molecular target: LF cleavage of endogenous MKK3 and MKK4 in RAW264.7 cell lysate (Bacillus anthracis, UniProt P15917); type: biochemical
RAW264.7 cells [4] = type: cell-based
RAW264.7 cells [5] = type: cell-based; remark: listed apart in the source
[6] = molecular target: T1, anthrax lethal factor (LF); type: biochemical
[7] = read-out: IC50 (µM), MKK6 cleavage

T1 sequence (P15917 34-809 limits assumed): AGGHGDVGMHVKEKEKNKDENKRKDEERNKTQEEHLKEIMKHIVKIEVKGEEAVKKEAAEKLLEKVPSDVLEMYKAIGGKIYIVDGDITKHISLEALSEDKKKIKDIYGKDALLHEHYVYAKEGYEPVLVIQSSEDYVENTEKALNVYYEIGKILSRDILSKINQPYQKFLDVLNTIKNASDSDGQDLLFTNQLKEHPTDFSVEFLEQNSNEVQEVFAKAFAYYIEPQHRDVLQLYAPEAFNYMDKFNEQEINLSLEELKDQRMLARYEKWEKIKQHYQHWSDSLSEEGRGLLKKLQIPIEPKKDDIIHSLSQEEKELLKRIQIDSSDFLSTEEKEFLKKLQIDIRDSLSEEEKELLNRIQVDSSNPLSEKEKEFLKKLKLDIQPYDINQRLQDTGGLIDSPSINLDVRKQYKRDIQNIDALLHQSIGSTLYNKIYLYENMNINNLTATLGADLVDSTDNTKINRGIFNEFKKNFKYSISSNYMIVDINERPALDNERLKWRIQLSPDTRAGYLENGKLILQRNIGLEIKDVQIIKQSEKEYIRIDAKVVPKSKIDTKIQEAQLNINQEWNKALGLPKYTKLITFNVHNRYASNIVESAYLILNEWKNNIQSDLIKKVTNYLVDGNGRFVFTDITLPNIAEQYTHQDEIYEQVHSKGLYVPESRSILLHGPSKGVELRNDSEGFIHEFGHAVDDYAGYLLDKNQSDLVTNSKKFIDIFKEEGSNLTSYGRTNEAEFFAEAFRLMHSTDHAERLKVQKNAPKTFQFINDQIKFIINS
Sequence of LF cleavage of endogenous MKK3 and MKK4 in RAW264.7 cell lysate (P15917 34-809 limits assumed): as above

Compound	IC50 [1]	Inhibition of LF cleavage of a peptide substrate (in words) [2]	Inhibition of MKK3 cleavage by LF in cell lysate [3]	Inhibition of MKK4 cleavage by LF in cell lysate [3]	MKK3 cleavage in intact LeTx-treated cells (RAW264.7 cells [4])	Protection against LeTx-induced cell death (MTT viability) (RAW264.7 cells [5])	Inhibition of MKK6 cleavage by LF (structure-activity profile, in words) [1]	IC50 [1, 7]	other results
COc1cc(C)c2c(c1C=O)Oc1c(c(C)c(O)c3c1C(O)OC3=O)OC2=O (centres unmarked) [Compound 1, Stictic acid]	24 ± 3 µM	weak inhibitors	inhibited cleavage	inhibited cleavage	decreased MKK3 cleavage	partial protection			
Cc1cc(O)c(C=O)c2c1C(=O)Oc1c(CO)c(O)c3c(c1O2)C(O)OC3=O (centres unmarked) [Compound 2, Salazinic acid]		weak inhibitors	inhibited cleavage	inhibited cleavage	decreased MKK3 cleavage	partial protection	active as inhibitors	42 ± 5 µM	Mode of inhibition of LF cleavage of MKK6 [1]: competitive inhibition; also recorded: increased KM with no effect on Vmax
COc1cc(C(=O)O)c2c(c1C)OC(=O)c1c(C)cc(O)c(C=O)c1O2 [Compound 3, Parellic acid]		weak inhibitors	inhibited cleavage	inhibited cleavage	decreased MKK3 cleavage	partial protection	active as inhibitors	125 ± 20 µM	
COC(=O)c1c(OC)cc2c(c1C)Oc1c(Cl)c(O)c(Cl)c(C)c1C(=O)O2 [Compound 4, Gangaleoidin]	> 250 µM						failed to inhibit LF		
CCCCCC(=O)Cc1cc(O)cc2c1C(=O)Oc1cc(O)c(C(=O)O)c(CCCCC)c1O2 [Compound 5, Physodic acid]	> 250 µM						failed to inhibit LF		
Cc1cc(OC(=O)c2c(C)cc(O)cc2O)cc(O)c1C(=O)O [Compound 6, Lecanoric acid]						failed to inhibit cell death	lack of inhibition		IC50 (µM), MKK6 cleavage [1]: No inhibition
COC(=O)c1c(C)cc(OC(=O)c2c(C)cc(O)c(C=O)c2O)c(C)c1O [Compound 7, Atranorin]						failed to inhibit cell death	lack of inhibition		IC50 (µM), MKK6 cleavage [1]: No inhibition
CNC(=O)[C@H](Cc1c[nH]c2ccccc12)NC(=O)[C@@H](CC(=O)NO)CC(C)C [GM6001, reference compound]									IC50 [2]: 9 µM; Result in primary FP screen for inhibition of LF cleavage of labeled MKK6 [6]: scored as a hit
COc1ccccc1C=O [o-anisaldehyde, reference compound]									Inhibition of MKK6 cleavage by LF (in words) [1]: no detectable inhibition
Reduced stictic acid [Compound 8]								> 250 µM	
